# Data from US20170045513A1, “METHODS OF DIAGNOSING CELIAC DISEASE USING IP-10” (ImmusanT, Inc., priority 2014, published 2017).
# Non-standard residues stand in square brackets, D forms with d. pGlu = O=C1CC[C@@H](C(=O)O)N1
# Key:
# Type in all cases: cell-based, human
# [1] = test system: gluten-reactive T cells; assay: 96-well plate whole blood cytokine release, IFNγ by MAGPIX multiplex bead assay; conditions: n = 8, blood after oral gluten challenge, individual peptides 5 μM (Peptide 2* of P14, Pepscan: 10 μg/mL (5.45 μM))
# [2] = test system: gluten-reactive T cells; assay: Cytokine release assays taken together (IFNγ ELISpot, whole blood IFNγ and IP-10, in-tube IFNγ ELISA); conditions: blood collected after oral gluten challenge
# Description: Gluten peptide solutions for addition to whole blood were arranged according to standardized templates in sterile 96-well U-bottom plates (30 μL/well). Plates were sealed with adhesive ELISA plate cover slips before the plastic lid was replaced and being frozen at −80° C. Whole blood assay (WBA) “medium” (1% DMSO in 90% PBS and 9% normal saline), mitogen (PHA-L, Sigma-Aldrich #L2769; St Louis Mo.) 100 μg/ml in WBA medium, and CEF diluted to 10 μg/ml in PBS with a final concentration of 1% DMSO were frozen separately in sterile cryovials. 96-well plates and cryovials with frozen incubation solutions were shipped on dry ice to the clinical site where blood was collected and incubations performed. Solutions were thawed at room temperature for 10 min just before being added to whole blood. 96-well plates were thawed while being centrifuged at 300 g to avoid surface condensation. A multi-channel pipette was used to efficiently transfer 25 μL of peptide solutions from the original 96-well plate to corresponding wells in a fresh sterile 96-well U-bottom plate. Once incubation solutions had been added, 225 μL of whole blood was added to each well and the plate transferred to incubate for 24 h at 37° C. 5% CO2. […] Individual peptides were incubated at a final assay concentration of 51.1M. Final concentrations of individual peptides assessed in P3 was 0.05-50 μg/mL, and in P14 and P13 pools 0.025-25 μM. The P71 pool was tested at between 0.005-10 pg/mL, the highest tested concentration being the maximal possible not exceeding 0.1% DMSO. Peptide pools, mitogen, and medium only were assessed in triplicate wells, and on Day-6 individual peptides were assessed in duplicate wells. Incubations were terminated after 24 h, and 96-well plates centrifuged at 300 g for 10 min. A total of approximately 90 to 120 μL of plasma was removed from each well taking care to avoid red cell contamination, and transferred into corresponding wells of two further 96-well plates (one with 30 μL/well and the residual in the second plate). Plasmas were frozen at −80° C. and later shipped on dry ice to the central lab where IP-10 and IFNγ multiplex bead assays were performed according to manufacturer's instructions using 25 μL plasma per well (Milliplex® MAP Human Cytokine/Chemokine Magnetic Bead Panel #HCYTOMAG-60k-02; EMD Millipore Corp., Billerica, Mass. 01821) and analysed with the Luminex® MAGPIX® System xPONENT® software (Luminex Corporation, Austin Tex. 78727). Plasma cytokine levels for each assay condition were expressed as the mean analyte concentration of each of the three replicate incubations. Laboratory staff were unaware of the arrangement of peptide solutions incubated with during assay setup and plate counting.
# Aliquots of PBS, P3 peptides diluted in PBS (final concentration in blood 3× 50 or CEF to a final concentration 1 μg/mL were prepared in sterile cryovials (0.11 mL/vial) and stored frozen (−80° C.) until immediately before use. P3, CEF and two PBS aliquots were drawn up in separate sterile 0.3 mL insulin syringes with attached 29G×½″ needle (Terumo, SS*30M2913; Elkton Md. 21921). P3, CEF and one PBS aliquot was injected through the stoppers of three separate QuantiFERON® NIL tubes already containing 1 mL blood, and one aliquot of PBS was injected into a QuantiFERON® MITOGEN tube already containing 1 mL blood. All four tubes containing blood and incubation solution were gently inverted ten-times and transferred to incubate at 37° C. 5% CO2. After for 24 h, tubes were centrifuged 300 g 10 min. Plasma was separated and equal volumes placed in two 1.5 mL cryovials. Frozen plasmas were transferred to the central lab where IFNγ levels were measured in triplicate 50 μL samples by ELISA (MABtech Human IFN-γ ELISA development kit HRP, 3420-1H-6; capture mAb 1-D1K). […]
# [3] = test system: gluten-reactive T cells; assay: Overnight IFNγ ELISpot assay with fresh PBMC; conditions: n = 5, blood after oral gluten challenge, individual peptides 5 μM (Peptide 2* of P14, Pepscan: 10 μg/mL (5.45 μM))
# Description: HLA-DQ2.5-positive celiac disease subjects on gluten-free diet were used in this study. Blood was collected immediately before and 6 days after commencing 3-day oral gluten challenge. Whole blood or PBMCs were incubated with pools or single peptides derived from gluten or recall antigens. IFNγ and IP-10 levels were measured in plasma from the whole blood that was incubated in 96-well plates with peptides or peptide pools. Plasma cytokine/chemokine levels were measured by MAGPIX® multiplex bead assay (IFNγ and IP-10) or by ELISA (IFNγ and IP-10), and PBMC separated from the same blood sample were incubated in overnight IFNγ ELISpot assays.
# Overnight IFNγ ELISpot assays (Human IFN-γ ELISpotPRO kit, transparent, ALP; Mabtech AB, #3420-2APT-10) were performed using PBMC freshly separated from heparinized blood diluted 1:1 in PBS with 2% fetal bovine serum (Stemcell Technologies #07905; Vancouver, BC, V5Z 1B3, Canada) overlaid on density gradient medium (Ficoll-Paque™ PLUS; GE Healthcare Lice Sciences #:17-1440-02) in SepMate™-50 tubes (Stemcell Technologies #15460). PBMC (8 million/mL) were resuspended in serum-free medium with gentamicin and phenol red (X-VIVO™15; Lonza, Walkersville Mass. 21793). PBMC (0.4 million/50 pt/well) and incubated with 50 μL 80% X-vivo15, 0.2% DMSO and 20% PBS in three triplicate wells (“medium only”), or with 50 μL PHA-L 20 μg/ml or peptide at 2× final concentration in 80% X-vivo15, 0.2% DMSO and 20% PBS. Peptide solutions to be added to individual ELISpot wells were prepared in 96-well U-bottom plates (60 pt/well) that were then sealed with adhesive ELISA plate cover slips before replacing the plastic lid and being frozen at −80° C. 96-well plates containing peptide solutions were thawed at room temperature for 10 min while being centrifuged at 300 g immediately prior to being added to ELISpot wells. Peptide pools and mitogen were assessed in triplicate wells, and individual peptides were assessed in duplicate wells. X-VIVO™15 (50 μL) was incubated with 80% X-vivo15, 0.2% DMSO and 20% PBS (50 μL) in triplicate wells (“no PBMC” control). A Zeiss automated ELISpot counter was used to determine spot forming units (SFU) per well (Zellnet Inc., Fort Lee, N J 07024). Laboratory staff were unaware of the arrangement of peptide solutions in ELISpot wells during assay setup and plate counting.
# [4] = test system: gluten-reactive T cells; assay: 96-well plate whole blood cytokine release, IP-10 by MAGPIX multiplex bead assay; conditions: for Percent of maximal response to individual gluten peptides, IP-10: after oral gluten challenge; for IP-10 WB MAGPIX % max Mean: n = 10, blood after oral gluten challenge, individual peptides 5 μM (Peptide 2* of P14, Pepscan: 10 μg/mL (5.45 μM))
substance,measurement,setting,value
"(pE)QPFPQPEQPFPWQP-amide ([pGlu]QPFPQPEQPFPWQP-NH2; SMILES NC(=O)CC[C@H](NC(=O)[C@H](Cc1c[nH]c2ccccc12)NC(=O)[C@@H]1CCCN1C(=O)[C@H](Cc1ccccc1)NC(=O)[C@@H]1CCCN1C(=O)[C@H](CCC(N)=O)NC(=O)[C@H](CCC(=O)O)NC(=O)[C@@H]1CCCN1C(=O)[C@H](CCC(N)=O)NC(=O)[C@@H]1CCCN1C(=O)[C@H](Cc1ccccc1)NC(=O)[C@@H]1CCCN1C(=O)[C@H](CCC(N)=O)NC(=O)[C@@H]1CCC(=O)N1)C(=O)N1CCC[C@H]1C(N)=O) [Peptide 2, two preparations tested separately: CSBio (5 μM) and Pepscan re-synthesis (10 μg/mL)]",IFNγ WB MAGPIX % max Mean,[1],23 % max
same,IFNγ WB MAGPIX % max Mean,[1]; listed as Peptide 2*,27 % max
same,activity relative to Peptide 14 in the cytokine release assays,[2],approximately one-half to one-fifth as active as Peptide 14
same,IFNγ ELISpot % max Mean,[3],19 % max
same,IFNγ ELISpot % max Mean,[3]; listed as Peptide 2*,25 % max
same,"Percent of maximal response to individual gluten peptides, IP-10","[4]; Subject 3, Max. 9492 pg/mL",≥ 100 % of max
same,"Percent of maximal response to individual gluten peptides, IP-10","[4]; Subject 4, Max. 9463 pg/mL",≥ 100 % of max
same,IP-10 WB MAGPIX % max Mean,[4],43 % max
same,IP-10 WB MAGPIX % max Mean,[4]; listed as Peptide 2*,49 % max
